This note sets out measurements from article PMC10649968, “Structural Basis of the Immunological Cross-Reactivity between Kiwi and Birch Pollen” (Foods, 2023).

As a reminder, the pKd is the Kd on a negative log10 scale, so that one unit is a factor of ten.

Test [1] deals with T1, Act d 8 (Actinidia deliciosa, UniProt D1YSM5).
T1 construct: gene ypr-10
T1 sequence (D1YSM5 1-157): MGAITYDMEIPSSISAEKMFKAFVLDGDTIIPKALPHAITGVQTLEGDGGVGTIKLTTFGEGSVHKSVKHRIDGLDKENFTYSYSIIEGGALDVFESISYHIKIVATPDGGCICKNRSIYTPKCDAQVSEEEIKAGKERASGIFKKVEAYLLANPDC
The experiment in a line: 1H-15N HSQC NMR titration (chemical shift perturbations). The format is binding.

Test [2] has as its target T2, Act c 8 (Actinidia chinensis, UniProt D1YSM4).
T2 construct: gene ypr-10
T2 sequence (D1YSM4 1-159): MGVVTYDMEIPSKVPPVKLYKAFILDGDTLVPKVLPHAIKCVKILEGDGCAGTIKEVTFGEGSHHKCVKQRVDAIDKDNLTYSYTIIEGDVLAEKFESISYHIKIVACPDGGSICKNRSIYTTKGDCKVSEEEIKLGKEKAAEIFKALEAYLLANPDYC
The description is as above. The format is binding.

SMILES strings stand for the structures. pKd: −log10 of the molar value.

Regarding `Oc1cccc(O)c1O` [pyrogallol], the negative logarithm of the Kd (pKd) in test [1] is 2.30; in test [2], 1.52.
